Measurements from US10775375B2, “Methods for identifying modulators of calcium-sensing receptors” (MARS, INCORPORATED, priority 2014, dated 2020).
Where two headings read alike, the source gives them in different places.

Molecular target: T1, feline calcium-sensing receptor (fCaSR) (Felis catus, UniProt C7FF08, X1044R)
T1 sequence (C7FF08 1-1081 X1044R): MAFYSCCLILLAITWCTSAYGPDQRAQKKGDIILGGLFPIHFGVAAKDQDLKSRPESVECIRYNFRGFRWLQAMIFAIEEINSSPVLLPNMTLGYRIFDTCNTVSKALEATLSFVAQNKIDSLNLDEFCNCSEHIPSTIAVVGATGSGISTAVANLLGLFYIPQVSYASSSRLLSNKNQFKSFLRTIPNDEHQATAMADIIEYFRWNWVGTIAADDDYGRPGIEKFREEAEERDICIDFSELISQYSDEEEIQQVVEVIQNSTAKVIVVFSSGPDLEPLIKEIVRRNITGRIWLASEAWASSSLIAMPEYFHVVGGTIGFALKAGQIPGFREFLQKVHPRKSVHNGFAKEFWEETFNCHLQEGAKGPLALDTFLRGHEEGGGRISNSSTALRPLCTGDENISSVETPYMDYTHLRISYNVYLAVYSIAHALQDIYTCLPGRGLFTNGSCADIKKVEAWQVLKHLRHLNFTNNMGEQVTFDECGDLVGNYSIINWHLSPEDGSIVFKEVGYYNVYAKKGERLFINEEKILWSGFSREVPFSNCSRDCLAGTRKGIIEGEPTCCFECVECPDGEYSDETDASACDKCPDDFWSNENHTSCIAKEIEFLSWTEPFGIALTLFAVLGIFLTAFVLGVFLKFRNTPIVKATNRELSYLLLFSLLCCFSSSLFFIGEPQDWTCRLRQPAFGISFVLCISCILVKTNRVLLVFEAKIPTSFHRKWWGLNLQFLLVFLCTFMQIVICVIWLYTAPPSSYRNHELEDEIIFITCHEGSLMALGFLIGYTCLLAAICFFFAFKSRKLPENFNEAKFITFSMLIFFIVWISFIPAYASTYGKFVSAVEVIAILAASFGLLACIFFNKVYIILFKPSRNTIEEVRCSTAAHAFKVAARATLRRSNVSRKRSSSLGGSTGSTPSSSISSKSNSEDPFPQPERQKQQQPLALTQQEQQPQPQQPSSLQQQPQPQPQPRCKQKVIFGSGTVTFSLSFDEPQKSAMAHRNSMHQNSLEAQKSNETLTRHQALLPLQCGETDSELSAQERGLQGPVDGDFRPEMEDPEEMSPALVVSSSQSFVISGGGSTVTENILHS
Experiment: In vitro cellular luminescence assay for activation of fCaSR (HEK T-Rex/natClytin clone K 5.1, FLIPR Tetra), agonist mode and PAM mode
Format: cell-based
Conditions: for CaSR agonists and PAMs (mode of action on CaSR): classification as agonist, PAM or not active
Source text: Summary. The full length coding sequence of the calcium-sensing receptor (CaSR, a GPCR (3, C or Glutamate family), naturally coupled to Gαq/11 and Gαi (ligand-directed signaling)) from Felis catus (fCaSR) having the sequence described by SEQ ID NO: 7 was synthesized and sub-cloned into suitable expression vectors. The cat CaSR expression constructs were stably transfected in two mammalian cell lines, the HEK-natClytin and the HEK T-Rex/natClytin, two cell lines that allow for detection of changes in intracellular calcium levels through luminescence. A pure selected clone (K 5.1) was used to analyze 12 CaSR ligands (including calcium as a reference agonist control) in a high-throughput screening (HTS) multi-plate test for agonist and positive allosteric modulator (PAM) effects.
A final pure selected clone (K 5.1) was analyzed in a HTS multi-plate test for agonist or positive allosteric modulator (PAM) effects of 12 CaSR ligands (including calcium as a reference agonist control). 10.000 cw of K 5.1 were seeded on poly-D-lys coated 384 well MTPs in medium containing 1 μg/mL of Doxycycline. Screening with the 12 ligands (including calcium control) was conducted 24 hours later. […] For each ligand that activated CaSR as an agonist or PAM, the EC50 value of the ligand was determined.
Detection of CaSR receptor activation. Transfected cells were analyzed for a response to a reference agonist (calcium) or various CaSR ligands by detecting Ca^2+ sensitive photoprotein luminescence. The experiments were performed in a 384 well format according to one of the following procedures: • 7.500 cw were plated on poly-D-lys coated 384 well microtiter plates (MTPs). 24 h later, medium was manually discarded and replaced with fresh medium containing 1 μg/mL of Doxycycline. Experiments were then carried out 48 h after seeding. • 10.000 cw were plated on poly-D-lys coated 384 well MTPs in medium containing 1 μg/mL of Doxycycline. Experiments were carried out 24 hrs later.
On the day of the experiment, medium was removed by plate overthrow and tapping on a paper towel. Cells were then incubated for 3-4 hrs at 37° C. with 10 μM coelenterazine dissolved in 2 mM Ca^2+ or Ca^2+-Free Tyrode's Buffer (20 μL). Cells were exposed to calcium control and/or ligand and the luminescence changes over a period of 1 minute (at 35.000 gain of sensitivity) were monitored using a FLIPR® Tetra screening system. For agonist evaluation, a single exposure protocol was applied (ligands 1º injection, 20 μL-2×), whereas for PAM evaluation a double injection protocol was applied as following: • 1° injection: ligands dose-response (20 μL-2×) • 2° injection: Reference agonist EC20 (20 μL-3×) • Data Analysis. FLIPR® Tetra measurements were analysed with Screenworks© software (Molecular Devices, Version 3.0.1.4) and data were exported as Maximum statistics of Absolute Response (RLU) calculated after compound injection. RLU is obtained applying “Subtract Bias on Sample n” (where n=Time point of compound injection). Mean and standard deviation values were calculated on the exported data with Excel software, and then values were used to create sigmoidal dose-response curves (variable slope) or histograms with GraphPad PRISM® software (Version 6). The obtained EC50/IC50 values were used to calculate EC50/[…] values according to the following formula: ECX=[(X/100−X)1/HillSlope]*EC50
Cell lines, Medium and Culture Conditions. The experiments were done using HEK-natClytin or HEK T-Rex/natClytin reporter cell lines that were generated by stable transfection of the photoprotein natClytin into HEK-293 or HEK-293 T-Rex (HEK T-Rex, Invitrogen) cell lines respectively.
For experimental conditions, cells were plated on poly-D-lys coated 384 well MTPs according to one of the following conditions: • 7.500 cw.

| Molecule | CaSR agonists and PAMs (mode of action on CaSR) | EC50 [mM] | other results |
| --- | --- | --- | --- |
| NC(CCC(=O)NC(CS)C(=O)NCC(=O)O)C(=O)O [L-Glutathione, L-Glutathione (γ-Glu-Cys-Gly)] | L-Glutathione (agonist) | – | EC50 (agonist mode, single injection, HEK T-Rex/natClytin-fCaSR clone K 5.1, photoprotein luminescence, tested up to the MAX dose in c1/c2, read-out: Agonist EC50): 8.2 mM |
| NCC1O[C@H](O[C@@H]2C(N)C[C@@H](N)C(O)C2O[C@@H]2O[C@H](CO)C(OC3O[C@@H](CN)C(O)C(O)[C@H]3N)C2O)C(N)C(O)[C@@H]1O (some centres unmarked) [Neomycin] | Neomycin (agonist) | 10 | – |
| NCCCCN [Putrescine] | Putrescine (not active) | – | – |
| NCCCCNCCCN [Spermidine] | Spermidine (agonist) | 1.3 | – |
| Magnesium chloride (hexahydrate) [Magnesium (Mg^2+)] | (agonist) | – | – |
| C[C@@H](NCCCc1cccc(C(F)(F)F)c1)c1cccc2ccccc12 [Cinacalcet] | Cinacalcet (PAM) | 0.001 | CaSR agonists and PAMs (mode of action on CaSR) (listed as cinacalcet): activated CaSR as PAMs |
| Poly-L-Arginine | Poly-L-Arginine (agonist) | – | Agonist EC50 (agonist mode, single injection, HEK T-Rex/natClytin-fCaSR clone K 5.1, MAX dose 60 μg/mL): 4.6 µg/mL |
| NCCCNCCCCNCCCN [Spermine] | Spermine (agonist) | – | – |
| O.O.[Ca+2].[Cl-].[Cl-] [Calcium (Ca^2+), Calcium chloride (dihydrate)] | (agonist) | – | – |
| Calindol | Calindol (PAM) | – | CaSR agonists and PAMs (mode of action on CaSR) (listed as calindol): activated CaSR as PAMs |
